# Results from publication PMC10157211, “Four new suomilides isolated from the cyanobacterium Nostoc sp. KVJ20 and proposal of their biosynthetic origin” (Frontiers in Microbiology, 2023).
# Tests used:
# trypsin = conditions: ref Pluotno and Carmeli, 2005; cited from earlier work
# From the text: (§1) Compounds 5 and 6 were originally isolated via bioassay guided purification using a serine-protease inhibition assay when they were discovered in 2005 ([Pluotno and Carmeli, 2005]). The two banyasides were reported to inhibit the catalytic activity of trypsin. As far as we know, anti-bacterial activity of suomilide have not been reported previously, and the Nostoc sp. strain it has been isolated from was reported as non-toxic. This complies with our results, as no activity could be detected for 1–4 against bacteria or cell lines at high concentrations. Suomilide A has recently been investigate ...
# [1] = Dissolution of isolated fractions in solvent; assay type: physicochemical
# Method: Compounds 1–4 were isolated using mass-guided fractionation on preparative HPLC from 29.4 g dry mass of lyophilizated cyanobacteria from 10 L of culture. For the first purification step, the compounds were separated using a C18 reversed phase column. The collected fractions were reduced to dryness at 40°C in vacuo. […] The yields were: 1: 9.8 mg; 2: 4.1 mg; 3: 5.9 mg; 4: 2.6 mg.
# [2] = tested on: cancer cell proliferation; conditions: ref Ahmed et al., 2021; cited from earlier work
# From the text: as §1
# prostate cancer cells = conditions: concentration of 3.3 μM; ref Ahmed et al., 2021; cited from earlier work
# From the text: as §1
# trypsin-1 = conditions: ref Ahmed et al., 2021; read-out: IC50 trypsin-1 inhibition; cited from earlier work
# From the text: as §1
# trypsin-2 = conditions: ref Ahmed et al., 2021; read-out: IC50 trypsin-2 inhibition; cited from earlier work
# From the text: as §1
# trypsin-3 = conditions: ref Ahmed et al., 2021, cited from earlier work
# From the text: as §1
substance,measurement,setting,value
banyaside A [Compound 5],inhibition of the catalytic activity of trypsin,trypsin,inhibit
Suomilide B [Compound 1],solubility in DMSO (qualitative),"[1]; dried HPLC fraction dissolved in DMSO, after extensive shaking",well
same,solubility in methanol (qualitative),[1]; dried HPLC fraction dissolved in methanol,dissolved poorly
suomilide [Suomilide A],effect on cancer cell proliferation,[2],no effect
same,inhibition of invasion of prostate cancer cells,prostate cancer cells,inhibit the invasion
same,IC50,trypsin-1,104 nM
same,IC50,trypsin-2,4.7 nM
same,IC50,trypsin-3; read-out: IC50 trypsin-3 inhibition,11.5 nM
same,residence time,trypsin-3; surface plasmon resonance spectroscopy,57 min
banyaside B [Compound 6],inhibition of the catalytic activity of trypsin,trypsin,inhibit
